The values that follow come from patent EP3057951B1, “METHYLENE LINKED QUINOLINYL MODULATORS OF ROR-GAMMA-T” (Janssen Pharmaceutica NV, priority 2013, dated 2015).

Structures are written as SMILES. Read-outs that look alike come from different tables or passages of the source. A value given as a limit tells only on which side of the number the result lay.

Assay [1] deals with T1, wild type human RORγt LBD (Homo sapiens, UniProt P51449).
T1 construct: expressed in transfected cells; host or cells: HEK293T
T1 sequence (P51449 258-518): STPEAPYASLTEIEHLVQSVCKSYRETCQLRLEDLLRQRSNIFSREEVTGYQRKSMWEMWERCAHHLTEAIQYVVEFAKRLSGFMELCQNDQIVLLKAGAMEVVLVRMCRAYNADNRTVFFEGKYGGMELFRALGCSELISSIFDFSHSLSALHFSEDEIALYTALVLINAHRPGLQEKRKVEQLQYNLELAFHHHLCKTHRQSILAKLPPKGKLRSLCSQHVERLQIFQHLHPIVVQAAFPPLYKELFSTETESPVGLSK
As to the kind of experiment: RORγt (LBD) Reporter Assay (GAL4-luciferase, HEK293T cells). The conditions noted are these: for RORγt (LBD) Reporter Assay, % inhibition @ 6 µM: 6 µM compound concentration; for inhibition at 6 µM: HEK-293T, read-out: RORγt (LBD) Reporter Assay, % inhibition @ 6 µM, 6 µM compound concentration. It is filed as cell-based. For orientation: A reporter such as luciferase makes a cellular process visible.

The target in assay [2] is T2, wild type human RORγt ligand binding domain (RORyt LBD) (Homo sapiens, UniProt P51449).
T2 construct: His-tag (N); TurboTEV protease cleavage site (ENLYFQG) (N); made in house; host or cells: E. coli (pHIS1, modified pET vector)
T2 sequence (P51449 258-518): T1 sequence (P51449 258-518)
As to the kind of experiment: RORγt ThermoFluor assay (thermal shift, binding affinity KD).

The mark [3] stands for this setting: HEK293T cells, value after the comma with ∼, > or < could not be included in the average.

For `Cn1cncc1C(O)(c1ccc(C(F)(F)F)nc1)c1ccc2nc(N3CC(F)C3)c(Cc3ccc(-n4cccn4)cc3)c(Cl)c2c1` (single isomer, unassigned) [Example 147c, {4-Chloro-2-(3-fluoroazetidin-1-yl)-3-[4-(1H-pyrazol-1-yl)benzyl]quinolin-6-yl}(1-methyl-1H-imidazol-5-yl)[6-(trifluoromethyl)pyridin-3-yl]methanol], in assay [1] (HEK293T cells), the “RORγt (LBD) Reporter Assay, % inhibition @ 6 µM” value (from here on “RORγt … % inhibition @ 6 µM”) was found to be 96% and the IC50 – broadly, the concentration at which inhibition is half-maximal – turned out to be 52 nM. The Kd (in general, the constant that tells how readily two partners part at equilibrium) in assay [2] was found to be 5.2 nM.
For `Cc1ccc(C(O)(c2ccc3nc(N4CC(F)(F)C4)c(Cc4ccc(C(F)(F)F)cc4)c(Cl)c3c2)c2cnnn2C)c(C)n1` (single isomer, unassigned) [Example 148b, {4-Chloro-2-(3,3-difluoroazetidin-1-yl)-3-[4-(trifluoromethyl)benzyl]quinolin-6-yl}(2,6-dimethylpyridin-3-yl)(1-methyl-1H-1,2,3-triazol-5-yl)methanol], in assay [1] (HEK293T cells), 460 nM corresponded to half-maximal inhibition (IC50) and the inhibition at 6 µM came out at 97%. Also, in assay [2], the Kd amounted to 56 nM.
Take `Cc1ccc(C(O)(c2ccc3nc(N4CC(F)(F)C4)c(Cc4ccc(C(F)(F)F)cc4)c(Cl)c3c2)c2cnnn2C)c(C)n1` (single isomer, unassigned) [Example 148c, {4-Chloro-2-(3,3-difluoroazetidin-1-yl)-3-[4-(trifluoromethyl)benzyl]quinolin-6-yl}(2,6-dimethylpyridin-3-yl)(1-methyl-1H-1,2,3-triazol-5-yl)methanol]: in assay [1] (HEK293T cells), the “RORγt … % inhibition @ 6 µM” value was 98% and the IC50 is ~6 nM. For the same compound, in assay [2], the Kd was determined as 0.39 nM.
`CCN(CC)c1nc2ccc(C(O)(c3ccc(Cl)cc3)c3cncn3C)cc2c(C#N)c1Cc1ccc(-n2cccn2)cc1` (single isomer, unassigned) [Example 154c, 3-(4-(1H-pyrazol-1-yl)benzyl)-6-((4-chlorophenyl)(hydroxy)(1-methyl-1H-imidazol-5-yl)methyl)-2-(diethylamino)quinoline4-carbonitrile] displayed an IC50 in assay [1] (HEK293T cells) of 1000 nM. For the same compound, in assay [2], the Kd was > 56000 nM.
Turning to `COc1nc2ccc(C(O)(c3ccc(F)cc3)C3CCN(C(C)=O)CC3)cc2c(Cl)c1Cc1ccc(-n2cccn2)cc1` (single isomer, unassigned) [Example 157b, 1-(4-((3-(4-(1H-Pyrazol-1-yl)benzyl)4-chloro-2-methoxyquinolin-6-yl)(4-fluorophenyl)(hydroxy)methyl)piperidin-1-yl)ethanone], in assay [1] (HEK293T cells), half-maximal inhibition (IC50) required 34 nM and the inhibition at 6 µM was 102%. Further, in assay [2], the dissociation constant (Kd) was 1.7 nM.
Regarding `COc1nc2ccc(C(O)(c3ccc(F)cc3)C3CCN(C(C)=O)CC3)cc2c(Cl)c1Cc1ccc(-n2cccn2)cc1` (single isomer, unassigned) [Example 157c, 1-(4-((3-(4-(1H-Pyrazol-1-yl)benzyl)4-chloro-2-methoxyquinolin-6-yl)(4-fluorophenyl)(hydroxy)methyl)piperidin-1-yl)ethanone], in assay [1] (HEK293T cells), the “RORγt … % inhibition @ 6 µM” value was determined as 99% and the midpoint of inhibition, the IC50, lay at 160 nM. The Kd in assay [2] was determined as 110 nM.
On to `COc1nc2ccc(C(O)(c3ccc(F)cc3)c3cccnc3)cc2c(Cl)c1Cc1ccc(-n2cccn2)cc1` (single isomer, unassigned) [Example 158b, (3-(4-(1H-Pyrazol-1-yl)benzyl)-4-chloro-2-methoxyquinolin-6-yl)(4-fluorophenyl)(pyridin-3-yl)methanol], for which, in assay [1] (HEK293T cells), the IC50 was 170 nM and the inhibition at 6 µM is 107%. The Kd in assay [2] was 140 nM.
Regarding `COc1nc2ccc(C(O)(c3ccc(F)cc3)c3cccnc3)cc2c(Cl)c1Cc1ccc(-n2cccn2)cc1` (single isomer, unassigned) [Example 158c, (3-(4-(1H-Pyrazol-1-yl)benzyl)-4-chloro-2-methoxyquinolin-6-yl)(4-fluorophenyl)(pyridin-3-yl)methanol], in assay [1] (HEK293T cells), the “RORγt … % inhibition @ 6 µM” value worked out at 100% and the IC50 was determined as 130 nM. Also, the Kd in assay [2] was found to be 7.7 nM.
In the case of `COc1ccc(C(O)(c2cccnc2)c2ccc3nc(OC)c(Cc4ccc(-n5cccn5)cc4)c(Cl)c3c2)cc1OC` (single isomer, unassigned) [Example 159b, (3-(4-(1H-Pyrazol-1-yl)benzyl)-4-chloro-2-methoxyquinolin-6-yl)(3,4-dimethoxyphenyl)(pyridin-3-yl)methanol], in assay [1] (HEK293T cells), the IC50 came to 370 nM and the inhibition at 6 µM amounted to 107%. In addition, the Kd in assay [2] is 510 nM.
Consider `COc1ccc(C(O)(c2cccnc2)c2ccc3nc(OC)c(Cc4ccc(-n5cccn5)cc4)c(Cl)c3c2)cc1OC` (single isomer, unassigned) [Example 159c, (3-(4-(1H-Pyrazol-1-yl)benzyl)-4-chloro-2-methoxyquinolin-6-yl)(3,4-dimethoxyphenyl)(pyridin-3-yl)methanol], for which, in assay [1] (HEK293T cells), the “RORγt … % inhibition @ 6 µM” value was 105% and inhibition was half-maximal at 51 nM (IC50). In addition, in assay [2], the dissociation constant Kd amounted to 14 nM.
On to `COc1nc2ccc(C(O)(c3ccc(F)cc3)c3cncn3C)cc2c(Cl)c1Cc1ccc(-n2cccn2)cc1` (single isomer, unassigned) [Example 160b, (3-(4-(1H-Pyrazol-1-yl)benzyl)-4-chloro-2-methoxyquinolin-6-yl)(4-fluorophenyl)(1-methyl-1H-imidazol-5-yl)methanol], for which, in assay [1] (HEK293T cells), the IC50 was found to be 680 nM and the inhibition at 6 µM worked out at 105%. In addition, in assay [2], the Kd is 460 nM.
Regarding `COc1nc2ccc(C(O)(c3ccc(F)cc3)c3cncn3C)cc2c(Cl)c1Cc1ccc(-n2cccn2)cc1` (single isomer, unassigned) [Example 160c, (3-(4-(1H-Pyrazol-1-yl)benzyl)-4-chloro-2-methoxyquinolin-6-yl)(4-fluorophenyl)(1-methyl-1H-imidazol-5-yl)methanol], in assay [1] (HEK293T cells), the “RORγt … % inhibition @ 6 µM” value is listed as 98% and the IC50 was 47 nM. Besides, the equilibrium dissociation constant (Kd) in assay [2] turned out to be 12 nM.
As to `COc1nc2ccc(C(O)(c3cccnc3)c3ccc(Cl)c(Cl)c3)cc2c(Cl)c1Cc1ccc(-n2cccn2)cc1` (single isomer, unassigned) [Example 161b, (3-(4-(1H-Pyrazol-1-yl)benzyl)-4-chloro-2-methoxyquinolin-6-yl)(3,4-dichlorophenyl)(pyridin-3-yl)methanol], in assay [1] (HEK293T cells), the IC50 was 160 nM and the inhibition at 6 µM was 108%. The Kd in assay [2] is 280 nM.
In the case of `COc1nc2ccc(C(O)(c3cccnc3)c3ccc(Cl)c(Cl)c3)cc2c(Cl)c1Cc1ccc(-n2cccn2)cc1` (single isomer, unassigned) [Example 161c, (3-(4-(1H-Pyrazol-1-yl)benzyl)-4-chloro-2-methoxyquinolin-6-yl)(3,4-dichlorophenyl)(pyridin-3-yl)methanol], in assay [1] (HEK293T cells), the “RORγt … % inhibition @ 6 µM” value was 102% and half-maximal inhibition (IC50) required 78 nM. Also, in assay [2], the Kd amounted to 11 nM.
In the case of `COc1nc2ccc(C(O)(c3cncn3C)C3CCOCC3)cc2c(C#N)c1Cc1ccc(-n2cccn2)cc1` (centres unmarked) [Example 2b, 3-(4-(1H-Pyrazol-1-yl)benzyl)-6-(hydroxy(1-methyl-1H-imidazol-5-yl)(tetrahydro-2H-pyran-4-yl)methyl)-2-methoxyquinoline-4-carbonitrile], in assay [1] (setting [3]), inhibition was half-maximal at 130 nM (IC50). Also, the inhibition at 6 µM in assay [1] turned out to be 101%. The Kd in assay [2] was found to be 110 nM.
In assay [1] (setting [3]), `COc1nc2ccc(C(O)(c3cnnn3C)c3cnnn3C)cc2c(Cl)c1Cc1ccc(C(F)(F)F)cc1` [Example 12, (4-Chloro-2-methoxy-3-(4-(trifluoromethyl)benzyl)quinolin-6-yl)bis(1-methyl-1H-1,2,3-triazol-5-yl)methanol] had an IC50 of 3.1 nM. Further, the inhibition at 6 µM in assay [1] is 99%. Further, in assay [2], the Kd was 0.7 nM.
As to `COc1nc2ccc(C(O)(c3ccc(C#N)cc3)c3cncn3C)cc2c(Cl)c1Cc1ccc(-n2cncn2)cc1` (centres unmarked) [Example 14a, 4-((3-(4-(1H-1,2,4-Triazol-1-yl)benzyl)4-chloro-2-methoxyquinolin-6-yl)(hydroxy)(1-methyl-1H-imidazol-5-yl)methyl)benzonitrile], in assay [1] (setting [3]), the IC50 was found to be 42 nM. In addition, the inhibition at 6 µM in assay [1] amounted to 105%. Also, the Kd in assay [2] was 17 nM.
On the same counts, the results for `COc1nc2ccc(C(O)(c3ccccc3)C3CCN(C(C)=O)CC3)cc2c(Cl)c1Cc1ccc(-n2ccnc2)cc1` (centres unmarked) [Example 16a, 1-(4-((3-(4-(1H-Imidazol-1-yl)benzyl)4-chloro-2-metboxyquinolin-6-yl)(hydroxy)(phenyl)methyl)piperidin-1-yl)ethanone] are 9.8 nM, 101% and 8.4 nM.
For the compound `COc1nc2ccc(C(O)(c3ccccc3)C3CCN(C(C)=O)CC3)cc2c(Cl)c1Cc1ccc(-n2ccnc2)cc1` (centres unmarked) [Example 16b], in assay [1], the “RORγt … % inhibition @ 6 µM” value is 96%. The same compound had an IC50 in assay [1] (setting [3]) of 91 nM. Moreover, the Kd in assay [2] came out at 33 nM.
For `COc1nc2ccc(C(O)(c3ccccc3)C3CCN(C(C)=O)CC3)cc2c(Cl)c1Cc1ccc(-n2ccnc2)cc1` (centres unmarked) [Example 16c], the “RORγt … % inhibition @ 6 µM” value in assay [1] was 100%. Besides, in assay [1] (setting [3]), inhibition was half-maximal at 20 nM (IC50). In addition, the Kd in assay [2] came out at 4.6 nM.
